Values quoted from earlier work, collected in PubChem BioAssay AID1259409 (Chemical Carcinogenesis Research Information System (CCRIS), 2018).

System: rodent chemically induced tumor inhibition, incidence and multiplicity
Assay: CCRIS tumor inhibitor studies

Clc1cccc(-c2ccc(Cl)c(Cl)c2Cl)c1Cl
tumour outcome (control, treated, inhibition, significance) (Carcinogen: DIETHYLNITROSAMINE, 55-18-5, Dose [Inhibitor]: 100 PPM IN DIET FOR 6 WK PRIOR TO CARCINOGEN DOSE (STUDY DURATION: 48 WK), Route [Inhibitor]: ORAL, Species: FISH, Strain/Sex: MT. SHASTA RAINBOW/MALE, FEMALE, Target Tissue: Type of Lesion: LIVER: HEPATOCELLULAR CARCINOMA AND HEPATOCHOLANGIOCELLULAR CARCINOMA, Dose [Carcinogen]: 250 PPM IN AQUEOUS SOLUTION FOR 24 HR, Promoter: NONE USED): 105/131 (80%), 112/140 (80%), 0%, not significant

CCCCCCCCCCCCCCCC(=O)OC[C@@]1(O)C[C@@]23CC[C@@H]4c5ccoc5CC[C@@]4(C)[C@@H]2CC[C@@H]1C3
tumour outcome (control, treated, inhibition, significance) (Carcinogen: 7,12-DIMETHYLBENZ[A]ANTHRACENE, 57-97-6, Dose [Inhibitor]: 0, 60 MG 1/D FOR 3 D BEGINNING 3 D PRIOR TO CARCINOGEN DOSE (STUDY DURATION: 20 WK), Route [Inhibitor]: GAVAGE, Species: RAT, Strain/Sex: SPRAGUE-DAWLEY/FEMALE, Target Tissue: Type of Lesion: MAMMARY GLAND: TUMOR, Dose [Carcinogen]: 12 MG IN 1 ML OLIVE OIL ONCE, Promoter: NONE USED): 84%, 69%, 18%, not significant

c1ccc2c(Cc3c[nH]c4ccccc34)c[nH]c2c1
tumour outcome (control, treated, inhibition, significance) (Carcinogen: BENZO[A]PYRENE, 50-32-8, Dose [Inhibitor]: 0.02 MMOL/G DIET DAILY STARTING AT 63 D OF AGE (8 D PRIOR TO START OF CARCINOGEN TREATMENT) THROUGH 98 D OF AGE FOLLOWED, Route [Inhibitor]: ORAL, Species: MOUSE, Strain/Sex: ICR/FEMALE, Target Tissue: Type of Lesion: FORESTOMACH: TUMOR, Dose [Carcinogen]: 1 MG IN 0.2 ML CORN OIL ADMINISTERED 2/WK FOR 4 WK, Promoter: NONE USED): 93%, 94%, -1%, not significant

COc1ccc2cc1Oc1ccc(cc1)C[C@H]1c3cc(c(OC)cc3CCN1C)Oc1c(OC)c(OC)cc3c1[C@@H](C2)N(C)CC3
tumour outcome (control, treated, inhibition, significance) (Carcinogen: 7,12-DIMETHYLBENZ[A]ANTHRACENE, 57-97-6, Dose [Inhibitor]: 0, 2 UMOL 2/WK 30 MIN PRIOR TO EACH PROMOTER DOSE BEGINNING 1 WK POST CARCINOGEN DOSE (STUDY DURATION: 18 WK), Route [Inhibitor]: DERMAL, Species: MOUSE, Strain/Sex: ICR/FEMALE, Target Tissue: Type of Lesion: SKIN: PAPILLOMA, Dose [Carcinogen]: 50 UG ONCE, Promoter: 12-O-TETRADECANOYLPHORBOL-13-ACETATE, 16561-29-8): 100%, 27%, 73%, not calculated

CC1=CC(=O)c2c(O)cccc2C1=O
tumour outcome (control, treated, inhibition, significance) (Carcinogen: AZOXYMETHANE [25843-45-2], Dose [Inhibitor]: 200 PPM IN DIET FOR 4 WK BEGINNING 1 WK PRIOR TO FIRST CARCINOGEN DOSE (STUDY DURATION: 35 WK), Route [Inhibitor]: ORAL, Species: RAT, Strain/Sex: F344/MALE, Target Tissue: Type of Lesion: COLON: ADENOMA, Dose [Carcinogen]: 15 MG/KG BW 1X/WK FOR 3 WK (STUDY DURATION: 35 WK), Promoter: NONE): 6/28 (21%), 3/29 (10%), 52%, not significant
tumour outcome (control, treated, inhibition, significance) (Carcinogen: AZOXYMETHANE [25843-45-2], Dose [Inhibitor]: 200 PPM IN DIET FOR 4 WK BEGINNING 1 WK PRIOR TO FIRST CARCINOGEN DOSE (STUDY DURATION: 35 WK), Route [Inhibitor]: ORAL, Species: RAT, Strain/Sex: F344/MALE, Target Tissue: Type of Lesion: COLON: CARCINOMA, Dose [Carcinogen]: 15 MG/KG BW 1X/WK FOR 3 WK (STUDY DURATION: 35 WK), Promoter: NONE): 8/28 (29%), 8/29 (28%), 3%, not significant
tumour outcome (control, treated, inhibition, significance) (Carcinogen: AZOXYMETHANE [25843-45-2], Dose [Inhibitor]: 200 PPM IN DIET FOR 4 WK BEGINNING 1 WK PRIOR TO FIRST CARCINOGEN DOSE (STUDY DURATION: 35 WK), Route [Inhibitor]: ORAL, Species: RAT, Strain/Sex: F344/MALE, Target Tissue: Type of Lesion: SMALL INTESTINE: CARCINOMA, Dose [Carcinogen]: 15 MG/KG BW 1X/WK FOR 3 WK (STUDY DURATION: 35 WK), Promoter: NONE): 7/28 (25%), 3/29 (10%), 60%, not significant
